Source: ChEMBL document CHEMBL2062378, “Antimycobacterial activity: a facile three-component [3+2]-cycloaddition for the regioselective synthesis of highly functionalised dispiropyrrolidines” (Bioorg Med Chem Lett, 2012)
Values after ≈ are worked out from the molar mass of the structure shown.

What was measured:
[1] = test system: Mycobacterium tuberculosis; experiment: Antimycobacterial activity against Mycobacterium tuberculosis H37Rv ATCC 27294 by alamar blue broth microdilution assay; assay type: functional
Vero = experiment: Cytotoxicity against african green monkey Vero cells after 72 hrs by MTT assay; assay type: cell-based; conditions: Chlorocebus sabaeus

Row | SMILES | MIC90 [1] | IC50 (Vero)
1 | CN1CC(c2ccccc2)C2(Cc3ccccc3C2=O)C12C(=O)c1ccccc1C2=O (stereo unspecified) | 6.22 µM (≈ 2.53 µg/mL) | > 62.5 µg/mL
2 | CN1CC(c2cncc(-c3ccc(F)cc3)c2)C2(Cc3ccccc3C2=O)C12C(=O)c1ccccc1C2=O (stereo unspecified) | 0.121 µM (≈ 0.0611 µg/mL) | > 62.5 µg/mL
3 | CN1CC(c2ccc(Cl)cc2)C2(Cc3ccccc3C2=O)C12C(=O)c1ccccc1C2=O (stereo unspecified) | 1.2 µM (≈ 0.528 µg/mL) | > 62.5 µg/mL
4 | CN1CC(c2ccc(Br)cc2)C2(Cc3ccccc3C2=O)C12C(=O)c1ccccc1C2=O (stereo unspecified) | 1.37 µM (≈ 0.667 µg/mL) | > 62.5 µg/mL
5 | CN1CC(c2ccc(C(=O)O)cc2)C2(Cc3ccccc3C2=O)C12C(=O)c1ccccc1C2=O (stereo unspecified) | 0.295 µM (≈ 0.133 µg/mL) | > 62.5 µg/mL
6 | CN1CC(c2cccc([N+](=O)[O-])c2)C2(Cc3ccccc3C2=O)C12C(=O)c1ccccc1C2=O (stereo unspecified) | 0.81 µM (≈ 0.366 µg/mL) | > 62.5 µg/mL
7 | CN1CC(c2ccc(C(F)(F)F)cc2)C2(Cc3ccccc3C2=O)C12C(=O)c1ccccc1C2=O (stereo unspecified) | 0.638 µM (≈ 0.303 µg/mL) | > 62.5 µg/mL
8 | CN1CC(c2ccc(OC(F)(F)F)cc2)C2(Cc3ccccc3C2=O)C12C(=O)c1ccccc1C2=O (stereo unspecified) | 0.214 µM (≈ 0.105 µg/mL) | > 62.5 µg/mL
9 | COc1ccc(C2CN(C)C3(C(=O)c4ccccc4C3=O)C23Cc2ccccc2C3=O)cc1 (stereo unspecified) | > 6.25 µM | > 62.5 µg/mL
10 | CN1CC(c2cccc3c2OCO3)C2(Cc3ccccc3C2=O)C12C(=O)c1ccccc1C2=O (stereo unspecified) | 2.42 µM (≈ 1.09 µg/mL) | > 62.5 µg/mL
11 | CN(C)c1ccc(C2CN(C)C3(C(=O)c4ccccc4C3=O)C23Cc2ccccc2C3=O)cc1 (stereo unspecified) | 3.32 µM (≈ 1.5 µg/mL) | > 62.5 µg/mL
12 | CN1CC(c2ccc(N3CCOCC3)cc2)C2(Cc3ccccc3C2=O)C12C(=O)c1ccccc1C2=O (stereo unspecified) | 1.22 µM (≈ 0.598 µg/mL) | > 62.5 µg/mL
13 | NNC(=O)c1ccncc1 [ISONIAZID] | 0.73 µM (≈ 0.1 µg/mL) | > 62.5 µg/mL
